Results published in patent EP4571315A1, “DIAGNOSTIC USE OF HIGHLY TOXIC AMYLOID OLIGOMER” (Shen Zhen Wisdom Biopharm Co., Ltd., priority 2022, dated 2024).
pIC50: −log10 of the molar value.

System: N2a cells
Assay: MTT assay, cytotoxicity to N2a cells
Type: cell-based
Details: for cell death: 0.5 nM; for pIC50: 72 hours, read-out: half-inhibitory concentration (IC50) on cell viability
Experimental: This experiment mainly used the MTT assay to detect the toxicity of Aβ aggregates to neurons. The specific procedure was as follows: N2a cells were cultured in DMEM medium containing 10% FBS and 1% penicillin/streptomycin. The cells in the culture dish were digested with trypsin, centrifuged, and resuspended in the medium, and then inoculated in a 96-well plate, with about 5,000 cells/100 µL medium per well. After 12 hours, the cells were treated with a series of concentration gradients of sApo*3F and sAβos, and the same volume of solvent was added to the cells as a control. After 72 hours, 25 µL 5 mg/mL MTT was added to each well. After further culture at 37 °C for 3 hours, the medium was aspirated and 150 µL DMSO was added. The absorbance at 570 nm and 630 nm was measured using an MD-M5 microplate reader. The average value of six replicate wells was used for each sample and control, and each experiment was repeated three times. Cell viability was calculated by dividing the absorbance (background corrected) of the sample well with the absorbance (background corrected) of the well added with solvent.

Substance: sApo*3F: Aβo*3F prepared in vitro: Aβ monomers incubated 2 days, immunoprecipitated with the antibody 3F
- cell death: 66%
- difference between the two IC50s (sAβos before immunoprecipitation vs sApo*3F) (MTT): 340 fold
- pIC50 (MTT): ~9.73

Substance: sAβos: Aβos prepared in vitro, 10 µM Aβ, 2-day incubation, before immunoprecipitation
- cell death: no substantial neurotoxic effect
- cytotoxicity / neurotoxicity (200 nM): 70%
- pIC50 (MTT): ~7.20
